Laboratory results published in patent publication US6737383B1, “Herbicidal oxadiazolidines” (priority 1999, dated 2004).

How the values were obtained:
bedstraw = assay: Test B pre/postemergence bedstraw; assay type: in vivo, Galium aparine
Method in brief: (§1)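 Test chemicals in a non-phytotoxic solvent mixture with surfactant were sprayed preemergence onto planted seeds and postemergence onto plants 2 to 18 cm tall (1- to 4-leaf stage). After twelve to sixteen days in a greenhouse, injury was visually rated against untreated controls from 0 (no effect) to 10 (complete control).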

surinam grass = assay: Test B pre/postemergence surinam grass; assay type: in vivo, Brachiaria decumbens
Method in brief: as §1

cocklebur = assay: Test B pre/postemergence cocklebur; assay type: in vivo, Xanthium strumarium
Method in brief: as §1

corn = assay: Test B pre/postemergence corn; assay type: in vivo, Zea mays
Method in brief: as §1

crabgrass = assay: Test B pre/postemergence crabgrass; assay type: in vivo, Digitaria sanguinalis
Method in brief: as §1

morningglory = assay: Test B pre/postemergence morningglory; assay type: in vivo, Ipomoea hederacea
Method in brief: as §1

pigweed = assay: Test B pre/postemergence pigweed; assay type: in vivo, Amaranthus retroflexus
Method in brief: as §1

rape = assay: Test B pre/postemergence rape; assay type: in vivo, Brassica napus
Method in brief: as §1

soybean = assay: Test B pre/postemergence soybean; assay type: in vivo, Glycine max
Method in brief: as §1

sugar beet = assay: Test B pre/postemergence sugar beet; assay type: in vivo, Beta vulgaris
Method in brief: as §1

velvetleaf = assay: Test B pre/postemergence velvetleaf; assay type: in vivo, Abutilon theophrasti
Method in brief: as §1

wild oat = assay: Test B pre/postemergence wild oat; assay type: in vivo, Avena fatua
Method in brief: as §1

rice = assay: Test B flood test rice; assay type: in vivo, Oryza sativa
Method in brief: (§2)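 Plants were grown to the 2-leaf stage before treatment with test chemical, then held in a greenhouse for twelve to sixteen days. Injury was visually rated against untreated controls on a 0–10 scale, where 0 is no effect and 10 is complete control.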

smallflower flatsedge = assay: Test B flood test smallflower flatsedge; assay type: in vivo, Cyperus difformis
Method in brief: as §2

duck salad = assay: Test B flood test duck salad; assay type: in vivo, Heteranthera limosa
Method in brief: as §2

bamyardgrass = assay: Test B flood test barnyardgrass; assay type: in vivo, Echinochloa crus-galli
Method in brief: as §2

[1] = Postemergence, Rate 62 g/ha, scale 0 to 10, 0 is no effect, 10 is complete control
[2] = Postemergence, Rate 250 g/ha, scale 0 to 10, 0 no effect, 10 complete control
[3] = Preemergence, Rate 62 g/ha, scale 0 to 10 (0 no effect, 10 complete control)
[4] = Preemergence, Rate 125 g/ha, scale 0 to 10 (0 no effect, 10 complete control)
[5] = Preemergence, Rate 250 g/ha, scale of 0 to 10 where 0 is no effect and 10 is complete control
[6] = Preemergence, Rate 500 g/ha, scale 0 (no effect) to 10 (complete control)
[7] = Rate 125 g/ha, Postemergence, scale 0 to 10, 0 no effect, 10 complete control
[8] = Rate 500 g/ha, Postemergence, scale 0 to 10, 0 no effect, 10 complete control
[9] = Rate 62 g/ha, headed Pre-emergence (flood test species), scale 0 to 10 (0 no effect, 10 complete control)
[10] = Rate 125 g/ha, Pre-emergence, flood test species, scale 0 to 10 where 0 is no effect and 10 is complete control
[11] = Rate 250 g/ha, headed Pre-emergence (flood test species), scale 0 to 10 (0 no effect, 10 complete control)
[12] = Rate 500 g/ha, headed Pre-emergence (flood test species), scale 0 to 10 (0 no effect, 10 complete control)

CCN(Cc1ccccc1)C(=O)n1oc(=O)n(-c2c(C)cccc2C)c1=O [Compound 70]
0: Bedstraw plant response rating (bedstraw; [1]) | Bedstraw plant response rating (bedstraw; [2]) | Bedstraw plant response rating (bedstraw; [3]) | Plant response rating, Bedstraw (bedstraw; [4]) | Plant response rating, Bedstraw (bedstraw; [5]) | Bedstraw plant response rating (bedstraw; [6]) | Bedstraw plant response rating (bedstraw; [7]) | Bedstraw plant response rating (bedstraw; [8]) | B. signalgrass plant response rating (surinam grass; [1]) | B. signalgrass plant response rating (surinam grass; [2]) | B. signalgrass plant response rating (surinam grass; [3]) | Plant response rating, B. signalgrass (surinam grass; [4]) | Plant response rating, B. signalgrass (surinam grass; [5]) | B. signalgrass plant response rating (surinam grass; [6]) | B. signalgrass plant response rating (surinam grass; [7]) | B. signalgrass plant response rating (surinam grass; Rate 500 g/ha, Postemergence, scale of 0 to 10 where 0 is no effect and 10 is complete control) | Cocklebur plant response rating (cocklebur; [1]) | Cocklebur plant response rating (cocklebur; [2]) | Cocklebur plant response rating (cocklebur; [3]) | Plant response rating, Cocklebur (cocklebur; [4]) | Plant response rating, Cocklebur (cocklebur; [5]) | Cocklebur plant response rating (cocklebur; [6]) | Cocklebur plant response rating (cocklebur; [7]) | Cocklebur plant response rating (cocklebur; [8]) | Corn plant response rating (corn; [1]) | Corn plant response rating (corn; [2]) | Corn plant response rating (corn; [3]) | Plant response rating, Corn (corn; [4]) | Plant response rating, Corn (corn; [5]) | Corn plant response rating (corn; [6]) | Corn plant response rating (corn; [7]) | Corn plant response rating (corn; [8]) | Crabgrass plant response rating (crabgrass; [1]) | Crabgrass plant response rating (crabgrass; [2]) | Crabgrass plant response rating (crabgrass; [3]) | Plant response rating, Crabgrass (crabgrass; [4]) | Plant response rating, Crabgrass (crabgrass; [5]) | Crabgrass plant response rating (crabgrass; [6]) | Crabgrass plant response rating (crabgrass; [7]) | Crabgrass plant response rating (crabgrass; [8]) | Morningglory plant response rating (morningglory; [1]) | Morningglory plant response rating (morningglory; [2]) | Morningglory plant response rating (morningglory; [3]) | Plant response rating, Morningglory (morningglory; [4]) | Plant response rating, Morningglory (morningglory; [5]) | Morningglory plant response rating (morningglory; [6]) | Morningglory plant response rating (morningglory; [7]) | Morningglory plant response rating (morningglory; [8]) | Redroot pigweed plant response rating (pigweed; [1]) | Redroot pigweed plant response rating (pigweed; [2]) | Redroot pigweed plant response rating (pigweed; [3]) | Plant response rating, Redroot pigweed (pigweed; [4]) | Plant response rating, Redroot pigweed (pigweed; [5]) | Redroot pigweed plant response rating (pigweed; [6]) | Redroot pigweed plant response rating (pigweed; [7]) | Redroot pigweed plant response rating (pigweed; [8]) | Rape plant response rating (rape; [1]) | Rape plant response rating (rape; [2]) | Rape plant response rating (rape; [3]) | Plant response rating, Rape (rape; [4]) | Plant response rating, Rape (rape; [5]) | Rape plant response rating (rape; [6]) | Rape plant response rating (rape; [7]) | Rape plant response rating (rape; [8]) | Soybean plant response rating (soybean; [1]) | Soybean plant response rating (soybean; [2]) | Soybean plant response rating (soybean; [3]) | Plant response rating, Soybean (soybean; [4]) | Plant response rating, Soybean (soybean; [5]) | Soybean plant response rating (soybean; [6]) | Soybean plant response rating (soybean; [7]) | Soybean plant response rating (soybean; [8]) | Sugarbeets plant response rating (sugar beet; [1]) | Sugarbeets plant response rating (sugar beet; [2]) | Sugarbeets plant response rating (sugar beet; [3]) | Plant response rating, Sugarbeets (sugar beet; [4]) | Plant response rating, Sugarbeets (sugar beet; [5]) | Sugarbeets plant response rating (sugar beet; [6]) | Sugarbeets plant response rating (sugar beet; [7]) | Sugarbeets plant response rating (sugar beet; [8]) | Velvetleaf plant response rating (velvetleaf; [1]) | Velvetleaf plant response rating (velvetleaf; [2]) | Velvetleaf plant response rating (velvetleaf; [3]) | Plant response rating, Velvetleaf (velvetleaf; [4]) | Plant response rating, Velvetleaf (velvetleaf; [5]) | Velvetleaf plant response rating (velvetleaf; [6]) | Velvetleaf plant response rating (velvetleaf; [7]) | Velvetleaf plant response rating (velvetleaf; [8]) | Wild oats plant response rating (wild oat; [1]) | Wild oats plant response rating (wild oat; [2]) | Wild oats plant response rating (wild oat; [3]) | Plant response rating, Wild oats (wild oat; [4]) | Plant response rating, Wild oats (wild oat; [5]) | Wild oats plant response rating (wild oat; [6]) | Wild oats plant response rating (wild oat; [7]) | Wild oats plant response rating (wild oat; [8]) | Rice plant response rating (rice; [9]) | Rice plant response rating (rice; [10]) | Rice plant response rating (rice; [11]) | Plant response rating, Rice (rice; [12]) | S. Flatsedge plant response rating (smallflower flatsedge; [9]) | S. Flatsedge plant response rating (smallflower flatsedge; [10]) | S. Flatsedge plant response rating (smallflower flatsedge; [11]) | Plant response rating, S. Flatsedge (smallflower flatsedge; [12]) | Ducksalad plant response rating (duck salad; [9]) | Ducksalad plant response rating (duck salad; [10]) | Ducksalad plant response rating (duck salad; [11]) | Plant response rating, Ducksalad (duck salad; [12]) | Barnyardgrass plant response rating (bamyardgrass; [9]) | Barnyardgrass plant response rating (bamyardgrass; [10]) | Barnyardgrass plant response rating (bamyardgrass; [11]) | Plant response rating, Barnyardgrass (bamyardgrass; [12])
